Reference: the NIST ThermoML archive (doi:10.1021/je049626l)
Where “and” joins values, the source holds several entries; their conditions need not be identical. Identical values can stand only once. Numbers after ± are expanded uncertainties.

Key:
[1] = molar enthalpy of vaporization or sublimation; conditions: Liquid, DSC
[2] = Crystal; for Normal melting temperature: DTA

CC(Oc1ccc(Cl)cc1Cl)C(=O)O (configuration not stated) [2-(2,4-dichlorophenoxy)propanoic acid]
molar enthalpy ([1]; 466.7 K): 18.2 ± 1.43 kcal/mol | molar enthalpy ([1]; 474 K): 18.2 ± 1.43 kcal/mol | molar enthalpy ([1]; 477.9 K): 18.2 ± 1.2 kcal/mol | vapor or sublimation pressure ([2]; 343 K): 0.000157 ± 2.1e-05 kPa | vapor or sublimation pressure ([2]; 347 K): 0.000267 ± 3.5e-05 kPa and 0.000297 ± 3.7e-05 kPa | vapor or sublimation pressure ([2]; 352 K): 0.000551 ± 6e-05 kPa | vapor or sublimation pressure ([2]; 353 K): 0.000503 ± 5.9e-05 kPa | vapor or sublimation pressure ([2]; 356 K): 0.000764 ± 8.4e-05 kPa and 0.000708 ± 7.9e-05 kPa | vapor or sublimation pressure ([2]; 358 K): 0.000849 ± 8.8e-05 kPa | vapor or sublimation pressure ([2]; 359 K): 0.000912 ± 0.00014 kPa | vapor or sublimation pressure ([2]; 360 K): 0.00126 ± 0.00028 kPa | vapor or sublimation pressure ([2]; 361 K): 0.00126 ± 0.0003 kPa and 0.00153 ± 0.00036 kPa | vapor or sublimation pressure ([2]; 364 K): 0.00223 ± 0.00054 kPa | vapor or sublimation pressure ([2]; 365 K): 0.00208 ± 0.00049 kPa | vapor or sublimation pressure ([2]; 366 K): 0.00252 ± 0.00066 kPa and 0.00339 ± 0.00089 kPa | vapor or sublimation pressure ([2]; 368 K): 0.00361 ± 0.00095 kPa | vapor or sublimation pressure ([2]; 370 K): 0.00445 ± 0.0012 kPa | vapor or sublimation pressure ([2]; 371 K): 0.00481 ± 0.0013 kPa | vapor or sublimation pressure ([2]; 372 K): 0.00472 ± 0.0013 kPa | vapor or sublimation pressure ([2]; 374 K): 0.00721 ± 0.0021 kPa | vapor or sublimation pressure ([2]; 375 K): 0.00692 ± 0.002 kPa | Normal melting temperature [2]: 116.6 ± 0.5 °C

COC(=O)COc1ccc(Cl)cc1Cl [methyl 2,4-dichlorophenoxyethanoate]
molar enthalpy ([1]; 415.2 K): 14.1 ± 0.717 kcal/mol | molar enthalpy ([1]; 424.4 K): 14.3 ± 0.717 kcal/mol | molar enthalpy ([1]; 430.4 K): 14.3 ± 0.717 kcal/mol | Normal melting temperature [2]: 37.6 ± 0.5 °C

O=C(O)COc1ccc(Cl)cc1Cl [2,4-dichlorophenoxyethanoic acid]
molar enthalpy ([1]; 479.1 K): 18.2 ± 0.956 kcal/mol | molar enthalpy ([1]; 489.5 K): 18.2 ± 1.43 kcal/mol | molar enthalpy ([1]; 503.3 K): 18.4 ± 1.2 kcal/mol | vapor or sublimation pressure ([2]; 346 K): 8.48e-05 ± 2e-05 kPa | vapor or sublimation pressure ([2]; 348 K): 0.000157 ± 1.9e-05 kPa | vapor or sublimation pressure ([2]; 348.5 K): 0.000127 ± 3.3e-05 kPa | vapor or sublimation pressure ([2]; 351 K): 0.00017 ± 4.6e-05 kPa | vapor or sublimation pressure ([2]; 351.5 K): 0.000127 ± 2.5e-05 kPa | vapor or sublimation pressure ([2]; 352 K): 0.000212 ± 4.5e-05 kPa | vapor or sublimation pressure ([2]; 353 K): 0.000255 ± 2.8e-05 kPa and 0.000314 ± 3.3e-05 kPa | vapor or sublimation pressure ([2]; 354.5 K): 0.000276 ± 4e-05 kPa and 0.000212 ± 3.6e-05 kPa | vapor or sublimation pressure ([2]; 357 K): 0.000472 ± 0.0001 kPa | vapor or sublimation pressure ([2]; 357.5 K): 0.000382 ± 8.6e-05 kPa | vapor or sublimation pressure ([2]; 358 K): 0.000318 ± 3.3e-05 kPa | vapor or sublimation pressure ([2]; 358.5 K): 0.000382 ± 4.8e-05 kPa | vapor or sublimation pressure ([2]; 360 K): 0.000445 ± 5.1e-05 kPa and 0.000629 ± 7.4e-05 kPa | vapor or sublimation pressure ([2]; 360.5 K): 0.000488 ± 7.2e-05 kPa | vapor or sublimation pressure ([2]; 361 K): 0.000551 ± 7e-05 kPa | vapor or sublimation pressure ([2]; 361.5 K): 0.000573 ± 5.8e-05 kPa | vapor or sublimation pressure ([2]; 362.5 K): 0.000573 ± 7.1e-05 kPa | vapor or sublimation pressure ([2]; 363 K): 0.000721 ± 8.9e-05 kPa and 0.000679 ± 8.7e-05 kPa | vapor or sublimation pressure ([2]; 364.5 K): 0.000806 ± 9.1e-05 kPa | vapor or sublimation pressure ([2]; 365.5 K): 0.000933 ± 0.00011 kPa and 0.00126 ± 0.00028 kPa | vapor or sublimation pressure ([2]; 366 K): 0.000976 ± 0.00011 kPa and 0.000848 ± 0.00012 kPa | vapor or sublimation pressure ([2]; 369 K): 0.00132 ± 0.00028 kPa and 0.0014 ± 0.00031 kPa and 0.0011 ± 0.00023 kPa | vapor or sublimation pressure ([2]; 370 K): 0.00136 ± 0.0003 kPa and 0.00204 ± 0.00048 kPa | vapor or sublimation pressure ([2]; 370.5 K): 0.00153 ± 0.00038 kPa | vapor or sublimation pressure ([2]; 371 K): 0.0017 ± 0.00038 kPa | vapor or sublimation pressure ([2]; 373 K): 0.00174 ± 0.00041 kPa | vapor or sublimation pressure ([2]; 374 K): 0.00255 ± 0.00065 kPa | vapor or sublimation pressure ([2]; 375 K): 0.00255 ± 0.00062 kPa and 0.00212 ± 0.0005 kPa | vapor or sublimation pressure ([2]; 375.5 K): 0.00229 ± 0.00056 kPa | vapor or sublimation pressure ([2]; 377 K): 0.00297 ± 0.00075 kPa | vapor or sublimation pressure ([2]; 378 K): 0.00293 ± 0.00074 kPa and 0.00481 ± 0.0013 kPa | vapor or sublimation pressure ([2]; 379 K): 0.00361 ± 0.00094 kPa | vapor or sublimation pressure ([2]; 379.5 K): 0.00344 ± 0.00088 kPa | vapor or sublimation pressure ([2]; 380.5 K): 0.00386 ± 0.001 kPa | vapor or sublimation pressure ([2]; 383.5 K): 0.00509 ± 0.0015 kPa | vapor or sublimation pressure ([2]; 385 K): 0.00594 ± 0.0018 kPa | vapor or sublimation pressure ([2]; 386 K): 0.00628 ± 0.0018 kPa | vapor or sublimation pressure ([2]; 387 K): 0.0067 ± 0.0019 kPa | Normal melting temperature [2]: 141.4 ± 0.5 °C

COC(=O)CCCOc1ccc(Cl)cc1Cl [butanoic acid, 4-(2,4-dichlorophenoxy)-, methyl ester]
molar enthalpy ([1]; 456 K): 15.8 ± 1.43 kcal/mol | molar enthalpy ([1]; 463.4 K): 16.3 ± 1.67 kcal/mol | molar enthalpy ([1]; 469.8 K): 16.3 ± 1.43 kcal/mol | Normal melting temperature [2]: 35.0 ± 0.5 °C

O=C(O)CCCOc1ccc(Cl)cc1Cl [4-(2,4-dichlorophenoxy)butanoic acid]
molar enthalpy ([1]; 485.7 K): 19.4 ± 2.15 kcal/mol | molar enthalpy ([1]; 495 K): 19.4 ± 2.39 kcal/mol | molar enthalpy ([1]; 501.1 K): 19.4 ± 2.15 kcal/mol | vapor or sublimation pressure ([2]; 356.5 K): 8.48e-05 ± 1.1e-05 kPa | vapor or sublimation pressure ([2]; 358 K): 0.000106 ± 1.3e-05 kPa | vapor or sublimation pressure ([2]; 359.5 K): 0.000127 ± 1.6e-05 kPa | vapor or sublimation pressure ([2]; 360 K): 0.000148 ± 1.6e-05 kPa and 0.000157 ± 1.7e-05 kPa | vapor or sublimation pressure ([2]; 361 K): 0.000148 ± 1.6e-05 kPa | vapor or sublimation pressure ([2]; 361.5 K): 0.00017 ± 2.2e-05 kPa | vapor or sublimation pressure ([2]; 362.5 K): 0.000191 ± 2.3e-05 kPa | vapor or sublimation pressure ([2]; 363 K): 0.000212 ± 2.4e-05 kPa and 0.000252 ± 2.7e-05 kPa | vapor or sublimation pressure ([2]; 363.5 K): 0.000212 ± 2.3e-05 kPa and 0.000233 ± 2.5e-05 kPa | vapor or sublimation pressure ([2]; 365.5 K): 0.000255 ± 2.9e-05 kPa | vapor or sublimation pressure ([2]; 366.5 K): 0.000297 ± 4e-05 kPa | vapor or sublimation pressure ([2]; 367 K): 0.000339 ± 5.2e-05 kPa | vapor or sublimation pressure ([2]; 367.5 K): 0.000377 ± 4.3e-05 kPa | vapor or sublimation pressure ([2]; 368 K): 0.000382 ± 5e-05 kPa | vapor or sublimation pressure ([2]; 369 K): 0.000467 ± 5.3e-05 kPa | vapor or sublimation pressure ([2]; 369.5 K): 0.000445 ± 4.6e-05 kPa | vapor or sublimation pressure ([2]; 370 K): 0.000488 ± 7.4e-05 kPa and 0.000467 ± 7.4e-05 kPa | vapor or sublimation pressure ([2]; 372 K): 0.000721 ± 8.4e-05 kPa | vapor or sublimation pressure ([2]; 372.5 K): 0.000679 ± 7.1e-05 kPa and 0.000636 ± 6.7e-05 kPa | vapor or sublimation pressure ([2]; 373 K): 0.000764 ± 8.6e-05 kPa and 0.000786 ± 8.7e-05 kPa | vapor or sublimation pressure ([2]; 374 K): 0.000806 ± 9.1e-05 kPa | vapor or sublimation pressure ([2]; 375 K): 0.000933 ± 0.0001 kPa and 0.00106 ± 0.00022 kPa | vapor or sublimation pressure ([2]; 377 K): 0.00106 ± 0.00022 kPa and 0.00123 ± 0.00026 kPa | vapor or sublimation pressure ([2]; 377.5 K): 0.00123 ± 0.0003 kPa | vapor or sublimation pressure ([2]; 378 K): 0.00138 ± 0.0003 kPa and 0.0017 ± 0.00038 kPa | vapor or sublimation pressure ([2]; 380 K): 0.00161 ± 0.00038 kPa | vapor or sublimation pressure ([2]; 381 K): 0.00229 ± 0.00056 kPa | vapor or sublimation pressure ([2]; 382 K): 0.00221 ± 0.00055 kPa | vapor or sublimation pressure ([2]; 383 K): 0.00297 ± 0.00076 kPa and 0.00283 ± 0.00072 kPa | vapor or sublimation pressure ([2]; 384 K): 0.00297 ± 0.00075 kPa | vapor or sublimation pressure ([2]; 386 K): 0.00369 ± 0.00096 kPa and 0.0044 ± 0.0012 kPa | vapor or sublimation pressure ([2]; 386.5 K): 0.00365 ± 0.001 kPa | vapor or sublimation pressure ([2]; 387 K): 0.00458 ± 0.0013 kPa | vapor or sublimation pressure ([2]; 389 K): 0.00539 ± 0.0015 kPa | vapor or sublimation pressure ([2]; 389.5 K): 0.00526 ± 0.0015 kPa | vapor or sublimation pressure ([2]; 391 K): 0.0067 ± 0.0019 kPa and 0.00666 ± 0.0019 kPa | Normal melting temperature [2]: 120.1 ± 0.5 °C
